Data taken from patent publication US7601716B2, “Pyridopyrazines and derivatives thereof as ALK and c-Met inhibitors” (Cephalon, Inc., priority 2006, dated 2009).

Legend:
[1] = biological target: T1, c-Met (cytoplasmic domain) (Homo sapiens, UniProt P08581); assay: c-Met Kinase Assay (ELISA/TRF, PLC-γ substrate); format: biochemical; details: 3 μM ATP (Km level); read-out: c-Met Kinase Inhibition (IC50)
T1 construct: Reactions were initiated with 30 ng/mL c-Met (cytoplasmic domain, Invitrogen Corporation #PV3143); purchased Invitrogen Corporation PV3143
T1 sequence (P08581 956-1390 limits assumed): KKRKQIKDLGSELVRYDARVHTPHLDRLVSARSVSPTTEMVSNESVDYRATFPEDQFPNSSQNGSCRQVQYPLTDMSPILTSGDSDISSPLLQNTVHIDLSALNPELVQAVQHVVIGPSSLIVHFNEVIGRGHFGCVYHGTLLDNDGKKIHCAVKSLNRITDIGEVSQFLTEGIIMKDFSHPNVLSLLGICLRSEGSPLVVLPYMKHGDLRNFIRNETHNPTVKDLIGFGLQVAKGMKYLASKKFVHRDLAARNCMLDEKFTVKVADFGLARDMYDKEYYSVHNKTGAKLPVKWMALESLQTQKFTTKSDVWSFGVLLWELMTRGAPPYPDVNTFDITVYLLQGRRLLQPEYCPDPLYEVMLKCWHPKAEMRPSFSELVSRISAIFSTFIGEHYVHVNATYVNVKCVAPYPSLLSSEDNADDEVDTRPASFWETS
Method: Example compounds were tested for their ability to inhibit the kinase activity of baculovirus-expressed ALK using a modification of the ELISA protocol reported for trkA in Angeles, T. S. et al., Anal. Biochem. 1996, 236, 49-55, which is incorporated herein by reference in its entirety. Phosphorylation of the substrate, phospholipase C-gamma (PLC-γ) generated as a fusion protein with glutathione S-transferase (GST) as reported in Rotin, D. et al., EMBO J. 1992, 11, 559-567, which is incorporated herein by reference in its entirety, was detected with a europium-labeled anti-phosphotyrosine antibody and measured by time-resolved fluorescence (TRF). Briefly, each 96-well plate was coated with 100 μL/well of 10 μg/mL substrate (phospholipase C-γ) in Tris-buffered saline (TBS). […] The reaction was initiated by adding enzyme (30 ng/ml ALK) and was allowed to proceed at 37° C. for 15 minutes. Detection of the phosphorylated product was performed by adding 100 μl/well of Eu-N1 labeled PT66 antibody (Perkin Elmer # AD0041). Incubation at 37° C. then proceeded for one (1) hour, followed by addition of 100 μL enhancement solution (Wallac #1244-105). The plate was gently agitated and after thirty minutes, the fluorescence of the resulting solution was measured using the EnVision 2100 (or 2102) multilabel plate reader (Perkin Elmer).
Data analysis was performed using ActivityBase (IDBS, Guilford, UK). IC50 values were calculated by plotting percent inhibition versus log10 of the concentration of compound and fitting to the nonlinear regression sigmoidal dose-response (variable slope) equation in XLFit (IDBS, Guilford, UK).
Reactions were initiated with 30 ng/mL c-Met (cytoplasmic domain, Invitrogen Corporation #PV3143).

[2] = biological target: baculovirus-expressed ALK (Homo sapiens, UniProt Q9UM73); assay: ALK Kinase Assay (ELISA/TRF, PLC-γ substrate); format: biochemical; details: read-out: ALK Kinase Inhibition (IC50); note: 1 µM ATP (Km level)
Sequence of baculovirus-expressed ALK (Q9UM73 19-1620): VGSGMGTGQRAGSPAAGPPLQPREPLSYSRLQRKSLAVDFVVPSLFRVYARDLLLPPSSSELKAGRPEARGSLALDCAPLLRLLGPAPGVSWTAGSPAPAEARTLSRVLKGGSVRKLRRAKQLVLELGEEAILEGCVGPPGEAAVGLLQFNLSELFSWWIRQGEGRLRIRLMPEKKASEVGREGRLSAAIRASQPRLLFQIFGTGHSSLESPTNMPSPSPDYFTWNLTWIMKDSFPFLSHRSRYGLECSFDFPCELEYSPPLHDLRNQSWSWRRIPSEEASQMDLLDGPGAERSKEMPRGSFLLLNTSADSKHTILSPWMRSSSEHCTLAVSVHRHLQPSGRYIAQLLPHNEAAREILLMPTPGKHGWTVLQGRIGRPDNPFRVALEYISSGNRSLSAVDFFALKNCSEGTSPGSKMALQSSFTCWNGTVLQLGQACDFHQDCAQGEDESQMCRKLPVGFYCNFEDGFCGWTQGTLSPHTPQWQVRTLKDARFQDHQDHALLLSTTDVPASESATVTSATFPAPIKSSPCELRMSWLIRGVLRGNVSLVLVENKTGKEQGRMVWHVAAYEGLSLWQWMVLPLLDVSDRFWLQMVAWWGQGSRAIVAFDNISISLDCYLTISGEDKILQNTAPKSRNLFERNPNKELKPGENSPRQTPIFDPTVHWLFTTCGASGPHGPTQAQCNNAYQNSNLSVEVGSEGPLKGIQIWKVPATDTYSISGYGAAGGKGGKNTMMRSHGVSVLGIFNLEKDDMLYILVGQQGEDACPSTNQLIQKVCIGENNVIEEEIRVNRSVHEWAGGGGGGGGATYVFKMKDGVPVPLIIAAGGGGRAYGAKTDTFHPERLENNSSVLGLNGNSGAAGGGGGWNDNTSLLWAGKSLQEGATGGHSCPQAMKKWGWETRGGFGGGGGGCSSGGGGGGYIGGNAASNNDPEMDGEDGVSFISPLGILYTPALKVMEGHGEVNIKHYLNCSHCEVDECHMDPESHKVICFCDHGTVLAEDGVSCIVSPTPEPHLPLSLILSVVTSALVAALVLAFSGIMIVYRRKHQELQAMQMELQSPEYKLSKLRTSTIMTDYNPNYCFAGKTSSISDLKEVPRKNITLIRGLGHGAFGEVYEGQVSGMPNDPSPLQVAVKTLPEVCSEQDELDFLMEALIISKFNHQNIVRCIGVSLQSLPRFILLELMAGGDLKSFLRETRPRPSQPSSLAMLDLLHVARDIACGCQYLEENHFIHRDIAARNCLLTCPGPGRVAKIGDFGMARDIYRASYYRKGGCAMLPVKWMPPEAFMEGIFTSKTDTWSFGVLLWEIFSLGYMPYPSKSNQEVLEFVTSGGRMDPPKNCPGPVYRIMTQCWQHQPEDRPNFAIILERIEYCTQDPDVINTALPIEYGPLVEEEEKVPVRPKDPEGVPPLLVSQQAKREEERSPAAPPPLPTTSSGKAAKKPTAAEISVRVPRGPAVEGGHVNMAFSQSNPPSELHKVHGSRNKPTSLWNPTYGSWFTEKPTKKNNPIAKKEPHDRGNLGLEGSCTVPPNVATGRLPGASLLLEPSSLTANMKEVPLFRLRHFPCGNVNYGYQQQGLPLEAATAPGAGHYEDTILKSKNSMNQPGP
In short: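 IC50 values fitted by nonlinear sigmoidal regression (variable slope) of percent inhibition against log compound concentration. Read-out was TRF of Eu-N1 anti-phosphotyrosine antibody bound to phosphorylated, plate-coated GST-PLC-γ (10 µg/mL). Kinase reaction used ALK at 30 ng/ml for 15 min at 37 °C.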

Row | IC50 [1] | IC50 [2] | Structure (SMILES)
1 | – | 100 to 1000 nM | O=C(NCc1cc(C(F)(F)F)cc(C(F)(F)F)c1)c1ccc(-c2cnc3c(c2)N(Cc2cc(Cl)ccc2C(F)(F)F)CCN3)cc1 [Example 397, N-[3,5-Bis(trifluoromethyl)benzyl]-4-{1-[5-Chloro-2-(trifluoromethyl)benzyl]-1,2,3,4-tetrahydropyrido[2,3-b]pyrazin-7-yl}benzamide]
2 | – | 100 to 1000 nM | O=C(NCc1ccc(Cl)cc1)c1ccc(-c2cnc3c(c2)N(Cc2cc(Cl)ccc2C(F)(F)F)CCN3)cc1 [Example 413, N-(4-Chlorobenzyl)-4-{1-[5-chloro-2-(trifluoromethyl)benzyl]-1,2,3,4-tetrahydropyrido[2,3-b]pyrazin-7-yl}benzamide]
3 | – | 100 to 1000 nM | COc1cccc(CNC(=O)c2ccc(-c3cnc4c(c3)N(Cc3cc(Cl)ccc3C(F)(F)F)CCN4)cc2)c1 [Example 418, 4-{1-[5-Chloro-2-(trifluoromethyl)benzyl]-1,2,3,4-tetrahydropyrido[2,3-b]pyrazin-7-yl}-N-(3-methoxybenzyl)benzamide]
4 | – | 100 to 1000 nM | COc1ccccc1CN(C)C(=O)c1ccc(-c2cnc3c(c2)N(Cc2cc(Cl)ccc2C(F)(F)F)CCN3)cc1 [Example 432, 4-{1-[5-Chloro-2-(trifluoromethyl)benzyl]-1,2,3,4-tetrahydropyrido[2,3-b]pyrazin-7-yl}-N-(2-methoxybenzyl)-N-methylbenzamide]
5 | – | 100 to 1000 nM | O=C(NCc1csc(-c2ccccc2)n1)c1ccc(-c2cnc3c(c2)N(Cc2cc(Cl)ccc2C(F)(F)F)CCN3)cc1 [Example 407, 4-{1-[5-Chloro-2-(trifluoromethyl)benzyl]-1,2,3,4-tetrahydropyrido[2,3-b]pyrazin-7-yl}-N-(2-phenylthiazol-4-ylmethyl)benzamide]
6 | – | 100 to 1000 nM | O=C(NCCc1ccccc1)c1ccc(-c2cnc3c(c2)N(Cc2cc(Cl)ccc2C(F)(F)F)CCN3)cc1 [Example 416, 4-{1-[5-Chloro-2-(trifluoromethyl)benzyl]-1,2,3,4-tetrahydropyrido[2,3-b]pyrazin-7-yl}-N-phenethylbenzamide]
7 | – | 100 to 1000 nM | O=C(c1ccc(-c2cnc3c(c2)N(Cc2cc(Cl)ccc2C(F)(F)F)CCN3)cc1)N1Cc2ccccc2C1 [Example 433, (4-{1-[5-Chloro-2-(trifluoromethyl)benzyl]-1,2,3,4-tetrahydropyrido[2,3-b]pyrazin-7-yl}phenyl)-(1,3-dihydroisoindol-2-yl)methanone]
8 | – | 100 to 1000 nM | O=C(NC1CCN(Cc2ccccc2)C1)c1ccc(-c2cnc3c(c2)N(Cc2cc(Cl)ccc2C(F)(F)F)CCN3)cc1 (stereo not drawn) [Example 427, N-(1-Benzylpyrrolidin-3-yl)-4-{1-[5-chloro-2-(trifluoromethyl)benzyl]-1,2,3,4-tetrahydropyrido[2,3-b]pyrazin-7-yl}benzamide]
9 | – | 100 to 1000 nM | O=C(NCc1cccnc1)c1ccc(-c2cnc3c(c2)N(Cc2cc(Cl)ccc2C(F)(F)F)CCN3)cc1 [Example 401, 4-{1-[5-Chloro-2-(trifluoromethyl)benzyl]-1,2,3,4-tetrahydropyrido[2,3-b]pyrazin-7-yl}-N-pyridin-3-ylmethylbenzamide]

The next lines start with the compound.

Row | Structure (SMILES) | IC50 [1] | IC50 [2]
10 | COc1ccc(CN2CCN(C(=O)c3cnc4c(c3)N(Cc3cc(Cl)ccc3Cl)CCN4)CC2)cc1 [Example 218, [1-(2,5-Dichlorobenzyl)-1,2,3,4-tetrahydropyrido[2,3-b]pyrazin-7-yl]-[4-(4-methoxybenzyl)piperazin-1-yl]methanone] | 10000 to 100000 nM | 10000 to 100000 nM
11 | CCOC(=O)N1CCC(NC(=O)c2cnc3c(c2)N(Cc2cc(Cl)ccc2Cl)CCN3)CC1 [Example 224, 4-{[1-(2,5-Dichlorobenzyl)-1,2,3,4-tetrahydropyrido[2,3-b]pyrazine-7-carbonyl]amino}piperidine-1-carboxylic acid ethyl ester] | 10000 to 100000 nM | 1000 to 10000 nM
12 | CN1CCN(c2cc(-c3cnc4c(c3)C(Oc3cccc(Cl)c3)CCN4)ccn2)CC1 (stereo not drawn) [Example 278, 4-(3-Chlorophenoxy)-6-[2-(4-methylpiperazin-1-yl)pyridin-4-yl]-1,2,3,4-tetrahydro-[1,8]naphthyridine] | 1000 to 10000 nM | 1000 to 10000 nM
13 | CC(C)(C)OC(=O)NCC#Cc1cnc2c(c1)N(Cc1c(Cl)cccc1Cl)CCN2 [Example 170, {3-[1-(2,6-Dichlorobenzyl)-1,2,3,4-tetrahydropyrido[2,3-b]pyrazin-7-yl]prop-2-ynyl}carbamic acid tert-butyl ester] | > 100000 nM | 1000 to 10000 nM
14 | O=C(c1cnc2c(c1)N(Cc1cc(Cl)ccc1Cl)CCN2)N1CCC[C@H]1CN1CCCC1 [Example 238, [1-(2,5-Dichlorobenzyl)-1,2,3,4-tetrahydropyrido[2,3-b]pyrazin-7-yl]-((S)-2-pyrrolidin-1-ylmethyl-pyrrolidin-1-yl)methanone] | > 100000 nM | 1000 to 10000 nM
15 | O=C(NCc1ccccc1)c1cccc(-c2cnc3c(c2)N(Cc2cc(Cl)ccc2C(F)(F)F)CCN3)c1 [Example 356, N-Benzyl-3-{1-[5-Chloro-2-(trifluoromethyl)benzyl]-1,2,3,4-tetrahydropyrido[2,3-b]pyrazin-7-yl}benzamide] | – | 100 to 1000 nM
16 | O=C(c1ccc(-c2cnc3c(c2)N(Cc2cc(Cl)ccc2C(F)(F)F)CCN3)cc1)N1CCN(c2nccc3occc23)CC1 [Example 386, (4-{1-[5-Chloro-2-(trifluoromethyl)benzyl]-1,2,3,4-tetrahydropyrido[2,3-b]pyrazin-7-yl}phenyl)-(4-furo[3,2-c]pyridin-4-ylpiperazin-1-yl)methanone] | – | 100 to 1000 nM
17 | O=C(c1cccc(-c2cnc3c(c2)N(Cc2cc(Cl)ccc2C(F)(F)F)CCN3)c1)N1CCC(Cc2ccccc2)CC1 [Example 316, (4-Benzylpiperidin-1-yl)-(3-{1-[5-Chloro-2-(trifluoromethyl)benzyl]-1,2,3,4-tetrahydropyrido[2,3-b]pyrazin-7-yl}phenyl)methanone] | – | 100 to 1000 nM
18 | O=C(c1ccc(-c2cnc3c(c2)N(Cc2cc(Cl)ccc2C(F)(F)F)CCN3)cc1)N1CCC(n2c(=O)[nH]c3ccccc32)CC1 [Example 372, 1-[1-(4-{1-[5-Chloro-2-(trifluoromethyl)benzyl]-1,2,3,4-tetrahydropyrido[2,3-b]pyrazin-7-yl}benzoyl)piperidin-4-yl]-1,3-dihydrobenzoimidazol-2-one] | – | 100 to 1000 nM
19 | O=C(c1cccc(-c2cnc3c(c2)N(Cc2cc(Cl)ccc2C(F)(F)F)CCN3)c1)N1CCN(c2cccc(C(F)(F)F)c2)CC1 [Example 312, (3-{1-[5-Chloro-2-(trifluoromethyl)benzyl]-1,2,3,4-tetrahydropyrido[2,3-b]pyrazin-7-yl}phenyl)-{4-[3-(trifluoromethyl)phenyl]piperazin-1-yl}methanone] | – | 100 to 1000 nM
20 | O=C(NCc1ccc(OC(F)(F)F)cc1)c1ccc(-c2cnc3c(c2)N(Cc2cc(Cl)ccc2C(F)(F)F)CCN3)cc1 [Example 395, 4-{1-[5-Chloro-2-(trifluoromethyl)benzyl]-1,2,3,4-tetrahydropyrido[2,3-b]pyrazin-7-yl}-N-[4-(trifluoromethoxy)benzyl]benzamide] | – | 100 to 1000 nM
21 | O=C(NCc1ccncc1)c1cccc(-c2cnc3c(c2)N(Cc2cc(Cl)ccc2C(F)(F)F)CCN3)c1 [Example 334, 3-{1-[5-Chloro-2-(trifluoromethyl)benzyl]-1,2,3,4-tetrahydropyrido[2,3-b]pyrazin-7-yl}-N-pyridin-4-ylmethylbenzamide] | – | < 100 nM
22 | O=C(NCc1ccc(Cl)cc1)c1cccc(-c2cnc3c(c2)N(Cc2cc(Cl)ccc2C(F)(F)F)CCN3)c1 [Example 349, N-(4-Chlorobenzyl)-3-{1-[5-Chloro-2-(trifluoromethyl)benzyl]-1,2,3,4-tetrahydropyrido[2,3-b]pyrazin-7-yl}benzamide] | – | 100 to 1000 nM
23 | O=C(c1cccc(-c2cnc3c(c2)N(Cc2cc(Cl)ccc2C(F)(F)F)CCN3)c1)N1CCN(CC2CCCCC2)CC1 [Example 362, (3-{1-[5-Chloro-2-(trifluoromethyl)benzyl]-1,2,3,4-tetrahydropyrido[2,3-b]pyrazin-7-yl}phenyl)-[4-(cyclohexylmethyl)piperazin-1-yl]methanone] | – | 100 to 1000 nM
24 | O=C(NC1CCc2ccccc21)c1cccc(-c2cnc3c(c2)N(Cc2cc(Cl)ccc2C(F)(F)F)CCN3)c1 (stereo not drawn) [Example 343, 3-{1-[5-Chloro-2-(trifluoromethyl)benzyl]-1,2,3,4-tetrahydropyrido[2,3-b]pyrazin-7-yl}-N-indan-1-ylbenzamide] | – | 100 to 1000 nM
25 | O=C(c1cccc(-c2cnc3c(c2)N(Cc2cc(Cl)ccc2C(F)(F)F)CCN3)c1)N1CCC(n2c(=O)[nH]c3ccccc32)CC1 [Example 310, 1-[1-(3-{1-[5-Chloro-2-(trifluoromethyl)benzyl]-1,2,3,4-tetrahydropyrido[2,3-b]pyrazin-7-yl}benzoyl)piperidin-4-yl]-1,3-dihydrobenzoimidazol-2-one] | – | 100 to 1000 nM
